Tests used:
[1] = system: TBI induced anxiety-like behavior (LFPI rats); assay: Freezing in shock chamber after fear conditioning, peri-injury ibudilast (Example 2, FIG. 2); assay type: in vivo; details: 10 mg/kg in corn oil, 5 days (2 days before LFPI, day of LFPI, 2 days after); 1 and 3 months post-injury
Experimental: All animals were fear conditioned by receiving shock (1.5 mA; 3-sec) immediately upon being placed in an experimental chamber. Freezing behavior was then measured the following day upon being replaced in the same chamber. Naïve (no surgical procedures) and Sham (LFPI surgery without pressure pulse) froze at a typical rate of approximately 15-20% when measured at 1 and 3 months post-injury (FIG. 2). In contrast, cohorts who received LFPI froze approximately 3 times as long at both time points.

[2] = system: TBI induced anxiety-like behavior (LFPI animals); assay: Freezing in a novel context, shock at 1 month post-injury, peri-injury MN166 (Example 3, FIG. 3B); assay type: in vivo, rats; details: 10 mg/kg s.c. 5 days peri-injury
Source text: Freezing behavior in rats was elicited substantially in the manner described before. When freezing behavior was made the dependent variable after placement in a novel context, large and stable differences between Naïve and LFPI animals were seen (FIG. 3). LFPI animals froze approximately 20-40% of the time compared to 5-10% for Naïve animals (FIG. 3A). Increased freezing behavior in LFPI compared to Naïve animals was significant at all time points (p<0.001). […] These animals included Naïve and LFPI groups as in FIG. 3A, but also LFPI+MN166 (Animals received a 5-day dosing regimen in which they received once-daily ibudilast injections 24 hr prior to LFPI, the day of surgery and LFPI, and 3 days following LFPI (10 mg/kg, 1 ml/kg subcutaneously in corn oil)) and a Sham surgery group. Overall, LFPI animals froze substantially more than Naïve, LFPI+MN166, and Sham groups at the 1, 2 and 3 month time points (p<0.001). Similar to the animals of FIG. 3A, at 2 weeks and 1 month post-injury, LFPI animals froze approximately 20-30% of the time in the novel context compared to approximately 5% for Naïve animals (p<0.001).

[3] = system: TBI induced anxiety-like behavior (LFPI animals); assay: Freezing in test chamber after immediate shock, peri-injury MN166 (Example 3, FIG. 4B); assay type: in vivo, rats; details: 1 and 3 months post-injury, untreated LFPI approximately 60% (p<0.003 and 0.0001)
Source text: Animals with LFPI froze approximately 3-4 times longer (30-40%) than Naïve animals (<10%) when placed in the test chamber (FIG. 4A). […] However, LFPI animals froze substantially more (approximately 60%) after shock compared to LFPI animals receiving no shock (30-35%; p<0.001 and 0.003, respectively). […] LFPI animals consistently froze more than all other groups, at all time points, with or without shock. […] However, by 3 months this difference was no longer significant (p<0.493).

[4] = system: TBI induced anxiety-like behavior (LFPI rats); assay: Freezing in a novel context after LFPI and foot shock, post-injury ibudilast (Example 1, FIG. 1); assay type: in vivo, Sprague-Dawley rats
Experimental: Twenty-four adult viral-free male Sprague-Dawley rats (275-325 g; Harlan Laboratories, Madison, Wis.) were housed in pairs in temperature (23±3° C.) and light (12:12 light:dark) controlled rooms with ad libitum access to food and water. All procedures were performed in accordance with University of Colorado Institutional Animal Care and Use Committee guidelines for the humane use of laboratory rats in biological research. Rats were randomly assigned to 1 of 4 groups (n=6/group; Sham-operated/vehicle-injected, Sham-operated/ibudilast-injected, LFPI/vehicle-injected, LFPI/ibudilast-injected). All rats were shocked approximately 2 weeks following LFPI to enhance freezing behavior in a novel context (a natural fear reaction in this species). After freezing behavior had been established (1 month post-injury) animals were subjected to a 5-day regimen of ibudilast or vehicle (corn oil) injections (once daily for 5 days). Freezing behavior was again assessed at 2 weeks, 1 month, 2 months, and at 3 months post-injection. Lateral Fluid Percussion Injury. LFPI rats were anesthetized with halothane (4% induction, 2.0-2.5% maintenance) and mounted in a stereotaxic frame. The lateral fluid percussion injury used in this study utilized a PV820 Pneumatic PicoPump (World Precision Instruments, Inc., Sarasota, Fla.) to deliver standardized pressure pulses of air to a standing column of fluid. A 3.0 mm diameter craniotomy was centered at 3 mm caudal to bregma and 4.0 mm lateral of the sagittal suture, with the exposed dura remaining intact. A female Luer-Loc hub (inside diameter of 3.5 mm) was secured over the craniotomy with cyanoacrylate adhesive. Following hub implantation, the animal was removed from the stereotaxic frame and connected to the LFPI apparatus. […] Weight was recorded prior to each dosing. […] Rats were tested (5 minutes) and the percent of freezing behavior was assessed. Freezing was defined as the absence of movement except for heart beat/respiration, and was recorded in 10 sec intervals. Statistical Analyses: Results are expressed as mean±SEM. […]

SMILES: CC(C)C(=O)c1c(C(C)C)nn2ccccc12 [Ibudilast, 2-Methyl-1-[2-(1-methylethyl)pyrazolo[1,5-a]pyridin-3-yl]-1-propanone]
- freezing behavior vs LFPI animals receiving vehicle injections [1]: substantially less
- percent freezing in novel context ([2]; 3 months post-injury, untreated LFPI 50%, Naïve 8%, Sham 10%): 14%
- freezing compared to untreated LFPI animals, novel context ([2]; significant at 1, 2 and 3 months post-injury (p<0.01, 0.001, 0.0001)): greatly reduced freezing
- percent freezing in test chamber after shock [3]: 25-35%
- freezing behavior of treated LFPI rats vs untreated LFPI rats ([4]; LFPI rats, 10 mg/kg s.c. once daily for 5 days at 1 month post-injury, up to 3 months post-treatment, p<0.01): froze substantially less
- freezing compared to untreated injured animals ([4]; LFPI rats, 10 mg/kg s.c. once daily for 5 days, started 1 month post-injury, P<0.05): about 60%
- influence on freezing of control animals ([4]; Sham-operated rats, 10 mg/kg s.c. once daily for 5 days, all post-injection time-points): no influence on control animals
